Results on 16 compounds are retold here after patent publication US20260124214A1, “HETEROCYCLIC COMPOUNDS FOR USE IN THE TREATMENT OF CANCER” (ARTIOS PHARMA LIMITED, priority 2021, published 2026).

The target of the assay is T1, Human Polθ polymerase domain (aa1820-2590) (Homo sapiens, UniProt O75417).
T1 construct: Human Polθ polymerase domain (aa1820-2590) was expressed in E. Coli; made in house; host or cells: E. coli
T1 sequence (O75417 1820-2590): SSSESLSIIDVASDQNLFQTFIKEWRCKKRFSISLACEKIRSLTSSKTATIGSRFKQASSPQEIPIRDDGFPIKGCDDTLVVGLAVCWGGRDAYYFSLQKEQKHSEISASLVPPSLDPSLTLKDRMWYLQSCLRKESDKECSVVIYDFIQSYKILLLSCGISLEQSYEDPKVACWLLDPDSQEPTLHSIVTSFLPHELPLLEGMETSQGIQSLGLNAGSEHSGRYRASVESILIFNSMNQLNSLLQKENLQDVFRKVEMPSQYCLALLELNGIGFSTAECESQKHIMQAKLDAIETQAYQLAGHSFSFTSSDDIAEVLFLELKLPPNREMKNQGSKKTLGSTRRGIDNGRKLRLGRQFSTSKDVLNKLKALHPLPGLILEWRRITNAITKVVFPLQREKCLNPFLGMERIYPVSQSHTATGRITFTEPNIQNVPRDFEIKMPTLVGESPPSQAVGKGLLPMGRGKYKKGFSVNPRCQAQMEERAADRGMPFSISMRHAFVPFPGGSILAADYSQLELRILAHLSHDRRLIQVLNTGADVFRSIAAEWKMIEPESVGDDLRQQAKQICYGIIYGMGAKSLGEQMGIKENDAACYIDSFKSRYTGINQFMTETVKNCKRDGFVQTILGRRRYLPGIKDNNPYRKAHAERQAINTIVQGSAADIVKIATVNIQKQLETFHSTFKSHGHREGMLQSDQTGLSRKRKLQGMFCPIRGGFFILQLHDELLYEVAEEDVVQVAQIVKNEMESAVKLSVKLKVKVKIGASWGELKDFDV
As to the kind of experiment: Polθ Polymerase Domain WT KI Assay (PicoGreen). The assay is classed as biochemical. To be noted: 100 nM DNA substrate, 0.156 nM Polθ, initial rates vs inhibitor concentration. As for the experimental part: A PicoGreen assay was used to measure the KI values of reversible compounds that inhibit the activity of Polθ in vitro.
Human Polθ polymerase domain (aa1820-2590) was expressed in E. Coli, purified, aliquoted and stored at −80° C. until required. Polθ substrate was generated from a 1.2:1 mix of DNA II Short to DNA II Long to give a final concentration of […] substrate in annealing buffer (20 mM Tris pH 7.5, 50 mM NaCl). The substrate was heated in 50 mL aliquots to 95° C. in a heating block for 5 min before the heating block switched off, the reaction left to cool to rt and stored at −20° C. until required.
Assay measurements were performed with 1× buffer comprising 25 mM Tris pH 7.5, 12.5 mM NaCl, […], 5% (v/v) glycerol, 0.01% v/v Triton x-100, 0.1 mg/ml BSA, 1 mM DTT. […] 100 nL of 23×1:1.5-fold serial dilutions and a DMSO only control were dispensed using the Tecan dispenser into Greiner 384 well black low volume plates (product code 784076). DMSO concentration was maintained at 1% of the final assay volume by back filling with DMSO.
To stop the reaction, 5 μL of a solution containing 25 mM Tris-HCl PH 7.5 and 20 mM EDTA was added at […] (t=0, 15, 30, 60, 90, 120, 150, 180 mins) using the Tempest's time delay function. The plates were covered during the time course to prevent evaporation. After completing the assay, 5 μL of detection reagent (25 mM Tris-HCl pH 7.5 and 2.5% (v/v) PicoGreen) was dispensed into the wells using a Tempest liquid handler (Formulatrix) and plates subsequently read on the CLARIOstar Plus (BMG Labtech) using the default optical settings for fluorescein and the auto gain/focus settings.
All data analysis was carried out using GraphPad Prism V.8 (GraphPad Software Inc, San Diego, CA). Time course data for each inhibitor concentration were fitted to the linear regression model in GraphPad Prism. Any time points where the control (DMSO only) reaction was no longer linear were excluded from the analysis. The initial rates (slopes) obtained from the linear regression were then plotted against inhibitor concentration and fitted to an inhibitor vs. response variable slope (four parameter) model on GraphPad Prism to determine the KI values.

Counter-ions that a name gives are not always drawn.

`Cc1cc(C(F)(F)F)cc(N2C(=O)C[C@@H]3CN(CC4CCCCN4)c4c(Cl)cccc4N(C)C(=O)[C@H]32)n1` (single isomer, unassigned) [Example 105a] yielded a Ki of 8.57 nM. Regarding `Cc1cc(C(F)(F)F)cc(N2C(=O)C[C@@H]3CN(c4ccccc4)c4c(F)cccc4N(C)C(=O)[C@H]32)n1` [Example 139, (3aR,11aS)-6-Fluoro-10-methyl-1-(6-methyl-4-(trifluoromethyl)pyridin-2-yl)-5-phenyl-1,3a,4,5,10,11a-hexahydro-2H-benzo[b]pyrrolo[2,3-f][1,4]diazocine-2,11(3H)-dione], the Ki was 56.8 nM.

`Cc1cc(C(F)(F)F)cc(N2C(=O)C[C@@H]3CN(CCN4CCN(S(C)(=O)=O)CC4)c4c(C)cccc4N(C)C(=O)[C@H]32)n1` [Example 67, (3aR,11aS)-6,10-Dimethyl-1-(6-methyl-4-(trifluoromethyl)pyridin-2-yl)-5-(2-(4-(methylsulfonyl)piperazin-1-yl)ethyl)-1,3a,4,5,10,11a-hexahydro-2H-benzo[b]pyrrolo[2,3-f][1,4]diazocine-2,11(3H)-dione] yielded a Ki of 0.598 nM.

Consider `Cc1cc(C(F)(F)F)cc(N2C(=O)C[C@@H]3CN(CC(=O)N4CCN(C)CC4)c4c(C)cccc4N(C)C(=O)[C@H]32)n1` [Example 93, (3aR,11aS)-6,10-Dimethyl-1-(6-methyl-4-(trifluoromethyl)pyridin-2-yl)-5-(2-(4-methylpiperazin-1-yl)-2-oxoethyl)-1,3a,4,5,10,11a-hexahydro-2H-benzo[b]pyrrolo[2,3-f][1,4]diazocine-2,11(3H)-dione], for which the Ki was found to be 1.19 nM.

For `CCN1C(=O)[C@@H]2[C@H](CC(=O)N2c2cc(C(F)(F)F)cc(C)n2)CN(CCN2CCN(C)CC2)c2c(Cl)cccc21` [Example 146, (3aR,11aS)-6-Chloro-10-ethyl-1-(6-methyl-4-(trifluoromethyl)pyridin-2-yl)-5-(2-(4-methylpiperazin-1-yl)ethyl)-1,3a,4,5,10,11a-hexahydro-2H-benzo[b]pyrrolo[2,3-f][1,4]diazocine-2,11(3H)-dione], the Ki was determined as 7.01 nM. On to `Cc1cc(C(F)(F)F)cc(N2C(=O)C[C@@H]3CN(CCCN4CCOCC4)c4c(F)cccc4N(C)C(=O)[C@H]32)n1` [Example 137, (3aR,11aS)-6-Fluoro-10-methyl-1-(6-methyl-4-(trifluoromethyl)pyridin-2-yl)-5-(3-morpholinopropyl)-1,3a,4,5,10,11a-hexahydro-2H-benzo[b]pyrrolo[2,3-f][1,4]diazocine-2,11(3H)-dione], for which affinity was put at a Ki of 10.1 nM. `Cc1cc(C(F)(F)F)cc(N2C(=O)C[C@@H]3CN(CCN4CCC(F)(F)C4)c4c(Cl)cccc4N(C)C(=O)[C@H]32)n1` [Example 23, (3aR,11aS)-6-Chloro-5-(2-(3,3-difluoropyrrolidin-1-yl)ethyl)-10-methyl-1-(6-methyl-4-(trifluoromethyl)pyridin-2-yl)-1,3a,4,5,10,11a-hexahydro-2H-benzo[b]pyrrolo[2,3-f][1,4]diazocine-2,11(3H)-dione] displayed an inhibition constant Ki of 1.48 nM. The compound `Cc1cc(C(F)(F)F)cc(N2C(=O)C[C@@H]3CN(Cc4ccncc4)c4c(Cl)cccc4N(C)C(=O)[C@H]32)n1` [Example 94, (3aR,11aS)-6-Chloro-10-methyl-1-(6-methyl-4-(trifluoromethyl)pyridin-2-yl)-5-(pyridin-4-ylmethyl)-1,3a,4,5,10,11a-hexahydro-2H-benzo[b]pyrrolo[2,3-f][1,4]diazocine-2,11(3H)-dione] registered a Ki of 3.29 nM.

In turn, `C=CCN1C[C@H]2CC(=O)N(c3cc(C(F)(F)F)cc(C)n3)[C@@H]2C(=O)N(C)c2c(F)c(F)cc(Cl)c21` [Example 6, (3aR,11aS)-5-Allyl-6-chloro-8,9-difluoro-10-methyl-1-(6-methyl-4-(trifluoromethyl)pyridin-2-yl)-1,3a,4,5,10,11a-hexahydro-2H-benzo[b]pyrrolo[2,3-f][1,4]diazocine-2,11(3H)-dione] registered a Ki of 5.14 nM. `Cc1cc(C(F)(F)F)cc(N2C(=O)C[C@@H]3CN(CC4CCNCC4)c4c(Cl)cccc4N(C)C(=O)[C@H]32)n1` [Example 78, (3aR,11aS)-6-Chloro-10-methyl-1-(6-methyl-4-(trifluoromethyl)pyridin-2-yl)-5-(piperidin-4-ylmethyl)-1,3a,4,5,10,11a-hexahydro-2H-benzo[b]pyrrolo[2,3-f][1,4]diazocine-2,11(3H)-dione] gave a Ki of 1.1 nM. Compared with the last compound, the Ki is about 4.7-fold lower.

For `CC(=O)N1CCN(CCN2C[C@H]3CC(=O)N(c4cc(C(F)(F)F)cc(C)n4)[C@@H]3C(=O)N(C)c3cccc(C)c32)[C@@H](C)C1` [Example 74, (3aR,11aS)-5-(2-((S)-4-Acetyl-2-methylpiperazin-1-yl)ethyl)-6,10-dimethyl-1-(6-methyl-4-(trifluoromethyl)pyridin-2-yl)-1,3a,4,5,10,11a-hexahydro-2H-benzo[b]pyrrolo[2,3-f][1,4]diazocine-2,11(3H)-dione], the affinity, expressed as Ki, was 1.21 nM. With `Cc1cc(C(F)(F)F)cc(N2C(=O)C[C@@H]3CN(CC4CCN(CCF)CC4)c4c(Cl)cccc4N(C)C(=O)[C@H]32)n1` [Example 86, (3aR,11aS)-6-Chloro-5-((1-(2-fluoroethyl)piperidin-4-yl)methyl)-10-methyl-1-(6-methyl-4-(trifluoromethyl)pyridin-2-yl)-1,3a,4,5,10,11a-hexahydro-2H-benzo[b]pyrrolo[2,3-f][1,4]diazocine-2,11(3H)-dione] the figure was 1.3 nM. In turn, `Cc1cc(C(F)(F)F)cc(N2C(=O)C[C@@H]3CN(CCN4CCOCC4)c4c(C)cccc4NC(=O)[C@H]32)n1` [Example 147, (3aR,11aS)-6-Methyl-1-(6-methyl-4-(trifluoromethyl)pyridin-2-yl)-5-(2-morpholinoethyl)-1,3a,4,5,10,11a-hexahydro-2H-benzo[b]pyrrolo[2,3-f][1,4]diazocine-2,11(3H)-dione] displayed a Ki of 3.62 nM. This Ki is about 2.8-fold higher than that of the compound before.

Compound `Cc1cc(C(F)(F)F)cc(N2C(=O)C[C@@H]3CN(Cc4nc5n(n4)CCNC5)c4c(F)cccc4N(C)C(=O)[C@H]32)n1` [Example 98, (3aR,11aS)-6-Fluoro-10-methyl-1-(6-methyl-4-(trifluoromethyl)pyridin-2-yl)-5-((5,6,7,8-tetrahydro-[1,2,4]triazolo[1,5-a]pyrazin-2-yl)methyl)-1,3a,4,5,10,11a-hexahydro-2H-benzo[b]pyrrolo[2,3-f][1,4]diazocine-2,11(3H)-dione] registered a Ki of 4.91 nM. Compound `Cc1cc(C(F)(F)F)cc(N2C(=O)C[C@@H]3CN(Cc4ccc5c(c4)CCN(C)C5)c4c(F)cccc4N(C)C(=O)[C@H]32)n1` [Example 122, (3aR,11aS)-6-Fluoro-10-methyl-5-((2-methyl-1,2,3,4-tetrahydroisoquinolin-6-yl)methyl)-1-(6-methyl-4-(trifluoromethyl)pyridin-2-yl)-1,3a,4,5,10,11a-hexahydro-2H-benzo[b]pyrrolo[2,3-f][1,4]diazocine-2,11(3H)-dione] showed a Ki of 1.94 nM.

`Cc1cc(C(F)(F)F)cc(N2C(=O)C[C@@H]3CN(Cc4nc5n(c4F)CCN(C)C5)c4c(Cl)cccc4N(C)C(=O)[C@H]32)n1` [Example 81, (3aR,11aS)-6-Chloro-5-((3-fluoro-7-methyl-5,6,7,8-tetrahydroimidazo[1,2-a]pyrazin-2-yl)methyl)-10-methyl-1-(6-methyl-4-(trifluoromethyl)pyridin-2-yl)-1,3a,4,5,10,11a-hexahydro-2H-benzo[b]pyrrolo[2,3-f][1,4]diazocine-2,11(3H)-dione hydrochloride]: the Ki stood at 1 nM.
